Experimental data reported in patent US8450373B2, “Alpha ketoamide compounds as cysteine protease inhibitors” (Virobay, Inc., priority 2005, dated 2013).

**Q.** For `CC[C@H](NC(=O)[C@H](CCS(C)(=O)=O)N[C@@H](c1ccc(F)cc1)C(F)(F)F)C(=O)C(=O)NC1CC1` [Table I Cpd. 78, N-cyclopropyl-3S-{4-methanesulfonyl-2S-[2,2,2-trifluoro-1S-(4-fluoro-phenyl)-ethylamino]-butyrylamino}-2-oxo-pentanamide], which melting point is on record?
**A.** 152.5 to 153.5 °C
